The text below walks through data of US20230212221A1, “Novel Therapeutic Uses of Mu-Opiate Receptor Peptides” (Cytogel Pharma, LLC, priority 2012, published 2023).

Where two headings read alike, the source gives them in different places.

One assay addresses delta receptors (Homo sapiens, UniProt P41143). Particulars: relative to mu-opiate receptor binding.
In assay [1] the target is T1, human mu-opioid receptor (hOPRM1) (Homo sapiens, UniProt P35372).
T1 construct: expressed in transfected cells
The assay can be described thus: cell-based. The protocol:
The effect of mu-opioid receptor agonists on the inhibition of cAMP production is determined using the […]. Briefly, cAMP Hunter™ cell lines expressing human mu-opioid receptor (hOPRM1) are seeded in 384-well microplates at a density of 10,000 cells/well in a total volume of 20 μl, and are allowed to adhere and recover overnight. […] The cells are incubated with the mu-opioid receptor agonist in the presence of 20 μM forskolin at 37° C. for 30 minutes. The experiment is performed in duplicate.
Assay signal is generated through incubation with 20 μL cAMP XS+ED/CL lysis cocktail for one hour followed by incubation with 20 μL cAMP XS+EA reagent for three hours at room temperature. Microplates are read following signal generation with a PerkinElmer Envision™ instrument for chemiluminescent signal detection.
Percentage activity is calculated using the following formula: % Activity=100%×(1−(mean RLU of test sample−mean RLU of MAX control)/(mean RLU of vehicle control−mean RLU of MAXcontrol).

For assay [2], the target named is T1, human mu-opioid receptor (hOPRM1). As to the kind of experiment: cell-based. As for the experimental part:
The effect of mu-opioid receptor agonists on beta-arrestin recruitment is determined using the PathHunter™ beta-arrestin assay. Briefly, PathHunter™ cell lines expressing human mu-opioid receptor (hOPRM1) are seeded in 384-well microplates at a density of 5,000 cells/well in a total volume of 20 μl, and are allowed to adhere and recover overnight. […] The cells are incubated with the mu-opioid receptor agonist at 37° C. for 90 minutes. The experiment is performed in duplicate.
Microplates are read following signal generation with a PerkinElmer Envision™ instrument for chemiluminescent signal detection.
Percentage activity is calculated using the following formula: % Activity=100%×(mean RLU (relative luminescence unit) of test sample−mean RLU of vehicle control)/(mean MAX RLU control ligand −mean RLU of vehicle control)).
The source holds these as a separate data set.

T1 sequence (P35372 whole entry): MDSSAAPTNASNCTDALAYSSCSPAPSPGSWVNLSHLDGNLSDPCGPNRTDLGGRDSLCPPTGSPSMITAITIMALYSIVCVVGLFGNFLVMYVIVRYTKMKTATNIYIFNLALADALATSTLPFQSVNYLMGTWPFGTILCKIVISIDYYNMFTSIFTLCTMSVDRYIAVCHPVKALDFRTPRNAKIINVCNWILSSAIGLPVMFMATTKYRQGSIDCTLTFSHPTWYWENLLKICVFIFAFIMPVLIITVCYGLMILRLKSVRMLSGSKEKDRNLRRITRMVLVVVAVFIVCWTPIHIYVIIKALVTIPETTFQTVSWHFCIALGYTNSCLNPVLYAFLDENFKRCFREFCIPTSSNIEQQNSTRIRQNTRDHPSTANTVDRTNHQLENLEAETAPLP
Chain of delta receptors (P41143 whole entry): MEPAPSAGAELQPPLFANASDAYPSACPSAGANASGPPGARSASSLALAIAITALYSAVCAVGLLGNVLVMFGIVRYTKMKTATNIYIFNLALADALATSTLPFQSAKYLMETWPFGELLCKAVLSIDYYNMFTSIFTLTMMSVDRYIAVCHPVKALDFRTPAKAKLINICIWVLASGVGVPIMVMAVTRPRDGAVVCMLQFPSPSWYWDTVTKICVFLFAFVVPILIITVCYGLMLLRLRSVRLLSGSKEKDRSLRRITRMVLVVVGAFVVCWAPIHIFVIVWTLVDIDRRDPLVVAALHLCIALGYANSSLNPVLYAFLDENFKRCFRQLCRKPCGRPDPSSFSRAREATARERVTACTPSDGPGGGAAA

Turning to H-Tyr-Pro-Trp-Phe-NH2 [SEQ ID NO:1], the “fold weaker binding to delta receptors” value at delta receptors is “over 4,000 fold”.
On to met-enkephalin [reference compound], for which the “Max Percent Activity, inhibition of cAMP production” value in assay [1] was determined as 102.800%. Besides, the “Max Percent Activity, beta-arrestin recruitment” value in assay [2] is on record as 100.1%.
Consider `NC(Cc1ccc(O)cc1)C(=O)NC1CCCCNC(=O)C(Cc2ccccc2)NC(=O)C(Cc2c[nH]c3ccccc23)NC1=O` [CYT-1010, H-Tyr-c-[D-Lys-Trp-Phe]], for which the EC50 in assay [1] (cAMP Hunter cells expressing hOPRM1, 20 μM forskolin, 30 minutes at 37° C., duplicate, read-out: EC50 (nM), inhibition of cAMP production) was found to be 0.0053 nM; in assay [2] (PathHunter cells expressing hOPRM1, 90 minutes at 37° C., duplicate, read-out: EC50 (nM), beta-arrestin recruitment), 13.1 nM. Also, the “Max Percent Activity, inhibition of cAMP production” value in assay [1] (normalized to control ligand and vehicle, 20 μM forskolin) came out at 98.350%. In assay [2] (normalized to control ligand and vehicle, PathHunter cells expressing hOPRM1), the “Max Percent Activity, beta-arrestin recruitment” value turned out to be 121.2%.

By EC50 is commonly meant the concentration needed to bring the measured effect to its halfway point.
